Test results taken from PMC12769565, “Design, synthesis and biological activity of glycoconjugated ADAMTS5 exosite inhibitors: applications in osteoarthritis and ovarian cancer models” (Scientific Reports, 2025).

What was measured:
[1] = test system: human OA cartilage explants; assay: Aggrecan fragments released from human OA cartilage (anti-AGEG immunoblot); assay type: cell-based; details: 48 h, anti-AGEG neoepitope, read-out: inhibition of aggrecan degradation
Method: (§1) Samples were separated by SDS-PAGE under reducing conditions (5% β-mercaptoethanol) on BOLT, 4–12%, Bis-Tris Gels (Invitrogen) in MES Running Buffer (NuPAGE). Proteins were transferred onto a nitrocellulose membrane using Trans-Blot Turbo™ Transfer System (BioRad), at 25 V, 2.5 A for 30 min. Membranes were blocked with 3% BSA/PBS for 1 h at room temperature. Aggrecan fragments generated by ADAMTS cleavage at E^392-A^393[8] or E^1953-A^1954[68] were detected using mouse monoclonal anti-ARGSV antibody (BC3, Life Technologies, MA3-16888, 4 µg/ml) or polyclonal anti-AGEG neoepitope antibody (serum, 1:200 dilution)[12],[33], respectively, followed by the appropriate horseradish peroxidase (HRP)-conjugated secondary antibodies (polyclonal Goat Anti-Mouse P0447, 0.1 ng/µl and polyclonal Goat Anti-Rabbit, P0448, 0.03 ng/µl, both from Agilent Technologies LDA UK Ltd). All antibodies were diluted in 0.5% bovine serum albumin (BSA)/PBS. Washes between each step were carried out in triplicate, for 15 min each, with PBS-Tween (0.1%). Following addition of the chemiluminescent HRP substrate (Millipore, WBKL30500) membranes were imaged using Bio-Rad Chemidoc Touch Imaging System. Analysis was carried out using BioRad ImageLab software (version 5.2.1) using sequential exposures to avoid saturation artifacts. Figures for unprocessed blots are included in Supplementary information Fig. S4 and Fig. S5 with highlighted regions (in red boxes) corresponding to the data reported in the main manuscript figures.
Human OA cartilage was obtained from Clatterbridge Hospital, Wirral, UK, following total knee arthroplasty procedures with informed patient consent in full compliance with national and institutional ethical requirements, the United Kingdom Human Tissue Act, and the Declaration of Helsinki (REC 18/WA/0344). […]
Explants were incubated in 0.2 ml of fresh DMEM containing compound 2 (10 or 100 µM) or 4b (10 µM) for 48 h. […] Proteins were precipitated using ice-cold acetone, dissolved in the SDS-sampling buffer and then analyzed by immunoblot using anti-AGEG aggrecan neoepitope antibody as before.

[2] = biological target: T1, ADAMTS5 (Homo sapiens, UniProt Q9UNA0); assay: Aggrecanase assay (bovine aggrecan, anti-ARGSV neoepitope immunoblot); assay type: biochemical
T1 construct: Human recombinant full-length FLAG-tagged ADAMTS4 and ADAMTS5 were expressed in HEK293T cells; FLAG; made in house; host or cells: HEK293T cells
T1 sequence (Q9UNA0 262-930): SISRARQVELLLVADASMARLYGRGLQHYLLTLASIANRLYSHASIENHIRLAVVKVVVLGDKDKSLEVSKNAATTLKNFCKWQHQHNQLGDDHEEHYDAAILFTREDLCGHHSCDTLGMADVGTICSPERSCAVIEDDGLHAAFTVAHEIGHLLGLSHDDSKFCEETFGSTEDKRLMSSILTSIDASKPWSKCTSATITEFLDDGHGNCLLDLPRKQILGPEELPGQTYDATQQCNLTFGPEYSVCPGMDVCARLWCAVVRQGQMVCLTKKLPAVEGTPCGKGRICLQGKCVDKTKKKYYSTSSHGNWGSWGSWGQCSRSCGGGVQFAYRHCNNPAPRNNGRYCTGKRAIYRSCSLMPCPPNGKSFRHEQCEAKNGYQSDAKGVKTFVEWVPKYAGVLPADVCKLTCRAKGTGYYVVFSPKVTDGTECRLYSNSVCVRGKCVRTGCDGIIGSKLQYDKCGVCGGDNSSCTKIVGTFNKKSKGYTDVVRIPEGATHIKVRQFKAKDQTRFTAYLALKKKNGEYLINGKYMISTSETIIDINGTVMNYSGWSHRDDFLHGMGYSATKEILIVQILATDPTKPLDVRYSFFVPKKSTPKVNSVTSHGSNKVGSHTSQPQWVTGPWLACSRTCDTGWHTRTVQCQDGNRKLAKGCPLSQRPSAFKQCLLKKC
Method: Aggrecanase assays were carried out as before. ADAMTS5 (1 nM) was incubated with compounds 2 and 3 or DMSO for 2 h at 37 °C in TNC-B buffer before addition of bovine articular aggrecan (UniProt ID: P13608, 270 nM) (Merck, A1960). After 2 h digestion at 37 °C, the reactions were stopped with ethylenediaminetetraacetic acid and the samples incubated with 0.1 U/ml of chondroitinase ABC (AMS Biotechnology, Abingdon, UK) and keratanase (endo-beta galactosidase, Merck, G6920) in deglycosylation buffer (50 mM sodium acetate, 25 mM Tris HCl pH 8.0) for 16 h at 37 °C to remove GAG chains.
as §1

[3] = test system: A2780-Rab25; assay: OC cell proliferation (DRAQ5 cell numbers); assay type: cell-based; details: 24 h
Method: A2780-Rab25 (3,000 cells per well) were seeded in a 96-well plate and incubated with compound 2 (10 µM and 50 µM) or DMSO control for 24 h. Cells were fixed with 4% paraformaldehyde and stained with 5 µM DRAQ5 in PBS for 1 h at room temperature with gentle rocking. Cells were washed twice with PBS for 30 min and kept in PBS for imaging. […] was detected by the 700 nm channel (200 μm resolution) of a Licor Odyssey Sa instrument. The signal intensity (total intensity minus total background) of each well was quantified in Image Studio Lite software.

inhibition at 10 µM ([2]; 10 µM): 53%
inhibition at 100 µM ([2]; 100 µM): 80%
Structure (SMILES): CCC(C)N(Cc1cn(CCCO[C@@H]2O[C@H](CO)[C@@H](O[C@@H]3O[C@H](CO)[C@H](O)[C@H](O)[C@H]3O)[C@H](O)[C@H]2NC(C)=O)nn1)S(=O)(=O)c1ccc(-c2ccccc2)cc1 (stereo partly drawn) [compound 2, N-((2R,3R,4R,5 S,6R)-2-(3-(4-((N-(sec-butyl)-[1,1’-biphenyl]-4-sulfonamido)methyl)-1H-1,2,3-triazol-1-yl)propoxy)-4-hydroxy-6-(hydroxymethyl)-5-(((2 S,3R,4 S,5R,6R)-3,4,5-trihydroxy-6-(hydroxymethyl)tetrahydro-2 H-pyran-2-yl)oxy)tetrahydro-2 H-pyran-3-yl)acetamide]
inhibition at 10 µM ([1]; 10 µM): 63%
inhibition at 100 µM ([1]; 100 µM): 85%
A2780-Rab25 cell numbers compared to DMSO control ([3]; 10 µM): did not detect any significant difference
A2780-Rab25 cell numbers compared to DMSO control ([3]; 50 µM): did not detect any significant difference
